# Earlier results in Sander's compilation of Henry's law constants (doi:10.1016/s0016-7037(99)00330-0).
# Assay: Henry solubility constant Hcp at 298.15 K (mol/(m3 Pa))
# Conditions: reference: Plyasunov and Shock (2000); cited value
row,Henry solubility constant Hcp,Compound
1,0.00014,CC1=CCCCC1 [1-methylcyclohexene]
2,0.00041,C#C [ethyne]
3,6.2e-06,"CC1CCC(C)(C)C1 (stereo not drawn) [1,1,3-trimethylcyclopentane]"
4,0.65,CCCC(C)O (stereo not drawn) [2-pentanol]
5,0.00029,CC(C)Cc1ccccc1 [(2-methylpropyl)-benzene]
6,1.9,CCO [ethanol]
7,8.7e-06,CCCCC [pentane]

row,Compound,Henry solubility constant Hcp
1,"Cc1cc(C)cc(C)c1 [1,3,5-trimethylbenzene]",0.0013
